Results from ChEMBL document CHEMBL1142572, “A Madagascar Sponge Batzella sp. as a source of alkylated iminosugars” (2005).

tested on: Staphylococcus epidermidis; assay: Antimicrobial activity against Staphylococcus epidermidis ATCC 12228; type: functional

MIC	Compound
≤ 6.3 µg/mL	CCCCCCCCCCC(O)C[C@H]1C[C@H](O)[C@@H](O)[C@@H](CO)N1 (stereo partly drawn) [BATZELLASIDE A]
≤ 6.3 µg/mL	CCCCCCCCCCCC(O)C[C@H]1C[C@H](O)[C@@H](O)[C@@H](CO)N1 (stereo partly drawn) [BATZELLASIDE C]
≤ 6.3 µg/mL	CCCCCCCCCC(O)C[C@H]1C[C@H](O)[C@@H](O)[C@@H](CO)N1 (stereo partly drawn) [BATZELLASIDE B]
